ChEMBL document CHEMBL1649585, “Role of the Mycobacterium tuberculosis P55 efflux pump in intrinsic drug resistance, oxidative stress responses, and growth” (2009)

Columns and labels:
Type in all cases: functional
[1] = system: Mycobacterium tuberculosis; experiment: Upregulation of p27 gene expression in Mycobacterium tuberculosis by microarray
[2] = system: Mycobacterium tuberculosis; experiment: Upregulation of p55 gene expression Mycobacterium tuberculosis by microarray
[3] = system: Mycobacterium tuberculosis; experiment: Downregulation of p27 gene expression Mycobacterium tuberculosis by microarray
[4] = system: Mycobacterium tuberculosis; experiment: Downregulation of p55 gene expression Mycobacterium tuberculosis by microarray

Measured: fold change (FC)

CN(C)CCCN1c2ccccc2Sc2ccc(Cl)cc21 [CHLORPROMAZINE]
>=2: all assays above

CC(C)/N=c1\cc2n(-c3ccc(Cl)cc3)c3ccccc3nc-2cc1Nc1ccc(Cl)cc1 [CLOFAZIMINE]
>=2: all assays above

CC1=CC(=O)c2ccccc2C1=O [MENADIONE]
>=2: all assays above

CO[C@@H]1[C@@H](OC(N)=O)[C@@H](O)[C@H](Oc2ccc3c(O)c(NC(=O)c4ccc(O)c(CC=C(C)C)c4)c(=O)oc3c2C)OC1(C)C [NOVOBIOCIN]
>=2: all assays above

O=[N+]([O-])c1cn2c(n1)OC[C@@H](OCc1ccc(OC(F)(F)F)cc1)C2 [PRETOMANID]
>=2: all assays above

CSc1ccc2c(c1)N(CCC1CCCCN1C)c1ccccc1S2 (configuration not stated) [THIORIDAZINE]
>=2: all assays above

Oc1cc(Cl)ccc1Oc1ccc(Cl)cc1Cl [TRICLOSAN]
>=2: all assays above

CC(C)[C@@H]1NC(=O)[C@H](C)OC(=O)[C@@H](C(C)C)NC(=O)[C@@H](C(C)C)OC(=O)[C@H](C(C)C)NC(=O)[C@H](C)OC(=O)[C@@H](C(C)C)NC(=O)[C@@H](C(C)C)OC(=O)[C@H](C(C)C)NC(=O)[C@H](C)OC(=O)[C@@H](C(C)C)NC(=O)[C@@H](C(C)C)OC1=O [VALINOMYCIN]
>=2: all assays above
